Test results as given in patent publication US5698411A, “Method for determining activity of enzymes in metabolically active whole cells” (priority 1995, dated 1997).

What was measured:
Type in all cases: cell-based, human
[1] = test system: lymphocytes; assay: aberrant enzyme activities in febrile children, lymphocytes (Table 7)
[2] = test system: granulocytes; assay: aberrant enzyme activities in febrile children, granulocytes (Table 7)
[3] = test system: monocytes; assay: aberrant enzyme activities in febrile children, monocytes (Table 7)

## CC(C)C[C@H](NC(=O)[C@@H](N)CC(C)C)C(=O)N[C@@H](CCCNC(=N)N)C(=O)Nc1ccc2c(c1)Oc1cc(NC(=O)[C@H](CCCNC(=N)N)NC(=O)[C@H](CC(C)C)NC(=O)[C@@H](N)CC(C)C)ccc1C21OC(=O)c2ccccc21 (stereo partly drawn) [LLR, (H-L Leu--Leu--Arg)2 Rho 110 .4TFA]
[1]; P92 Adenitis
  aberrant enzyme activity, LYMPHS: .smallcircle.
[1]; P97 Pyelonephritis
  aberrant enzyme activity, LYMPHS: .smallcircle.
[1]; P103 Viral Syndrome
  aberrant enzyme activity, LYMPHS: .smallcircle.
[2]; P92 Adenitis
  aberrant enzyme activity, GRANS: .smallcircle.
[2]; P97 Pyelonephritis
  aberrant enzyme activity, GRANS: .smallcircle.
[2]; P103 Viral Syndrome
  aberrant enzyme activity, GRANS: .smallcircle.
[3]; P92 Adenitis
  aberrant enzyme activity, MONOS: .smallcircle.
[3]; P97 Pyelonephritis
  aberrant enzyme activity, MONOS: .smallcircle.

## C[C@H](NC(=O)[C@@H](N)CCCCN)C(=O)Nc1ccc2c(c1)Oc1cc(NC(=O)[C@H](C)NC(=O)[C@@H](N)CCCCN)ccc1C21OC(=O)c2ccccc21 [KA, (Lys-Ala)2 Rho 110]
[1]; P88 Enteritis
  aberrant enzyme activity, LYMPHS: .smallcircle.
[1]; P89 Viral Stomatitis
  aberrant enzyme activity, LYMPHS: .smallcircle.
[1]; P92 Adenitis
  aberrant enzyme activity, LYMPHS: .smallcircle.
[1]; P95 Viral Syndrome
  aberrant enzyme activity, LYMPHS: .smallcircle.
[1]; P96 Viral Syndrome
  aberrant enzyme activity, LYMPHS: .smallcircle.
[1]; P97 Pyelonephritis
  aberrant enzyme activity, LYMPHS: .smallcircle.
[1]; P99 Viral Syndrome
  aberrant enzyme activity, LYMPHS: .smallcircle.
[1]; P102 UTI
  aberrant enzyme activity, LYMPHS: .smallcircle.
[1]; P103 Viral Syndrome
  aberrant enzyme activity, LYMPHS: .smallcircle.
[2]; P88 Enteritis
  aberrant enzyme activity, GRANS: .smallcircle.
[2]; P89 Viral Stomatitis
  aberrant enzyme activity, GRANS: .smallcircle.
[2]; P92 Adenitis
  aberrant enzyme activity, GRANS: .smallcircle.
[2]; P95 Viral Syndrome
  aberrant enzyme activity, GRANS: .smallcircle.
[2]; P96 Viral Syndrome
  aberrant enzyme activity, GRANS: .smallcircle.
[2]; P97 Pyelonephritis
  aberrant enzyme activity, GRANS: .smallcircle.
[2]; P99 Viral Syndrome
  aberrant enzyme activity, GRANS: .smallcircle.
[2]; P101 Fever -- Unknown Origin
  aberrant enzyme activity, GRANS: + (>0.25 Increase over normal range)
[2]; P102 UTI
  aberrant enzyme activity, GRANS: .smallcircle.
[2]; P103 Viral Syndrome
  aberrant enzyme activity, GRANS: .smallcircle.
[3]; P88 Enteritis
  aberrant enzyme activity, MONOS: .smallcircle.
[3]; P89 Viral Stomatitis
  aberrant enzyme activity, MONOS: .smallcircle.
[3]; P92 Adenitis
  aberrant enzyme activity, MONOS: .smallcircle.
[3]; P95 Viral Syndrome
  aberrant enzyme activity, MONOS: .smallcircle.
[3]; P96 Viral Syndrome
  aberrant enzyme activity, MONOS: .smallcircle.
[3]; P97 Pyelonephritis
  aberrant enzyme activity, MONOS: + (>0.25 Increase over normal range)
[3]; P99 Viral Syndrome
  aberrant enzyme activity, MONOS: .smallcircle.
[3]; P101 Fever -- Unknown Origin
  aberrant enzyme activity, MONOS: + (>0.25 Increase over normal range)
[3]; P102 UTI
  aberrant enzyme activity, MONOS: .smallcircle.
[3]; P103 Viral Syndrome
  aberrant enzyme activity, MONOS: .smallcircle.

## N=C(N)NCCC[C@H](N)C(=O)Nc1ccc2c(c1)Oc1cc(NC(=O)[C@@H](N)CCCNC(=N)N)ccc1C21OC(=O)c2ccccc21 (stereo partly drawn) [ARG, (H-L-Arg)2 Rho 110 .4TFA]
[1]; P92 Adenitis
  aberrant enzyme activity, LYMPHS: .smallcircle.
[1]; P95 Viral Syndrome
  aberrant enzyme activity, LYMPHS: .smallcircle.
[1]; P97 Pyelonephritis, listed as Arg-TFA
  aberrant enzyme activity, LYMPHS: .smallcircle.
[1]; P99 Viral Syndrome
  aberrant enzyme activity, LYMPHS: .smallcircle.
[1]; P102 UTI
  aberrant enzyme activity, LYMPHS: .smallcircle.
[1]; P103 Viral Syndrome
  aberrant enzyme activity, LYMPHS: .smallcircle.
[2]; P95 Viral Syndrome
  aberrant enzyme activity, GRANS: .smallcircle.
[2]; P96 Viral Syndrome
  aberrant enzyme activity, GRANS: .smallcircle.
[2]; P102 UTI
  aberrant enzyme activity, GRANS: .smallcircle.
[3]; P95 Viral Syndrome
  aberrant enzyme activity, MONOS: .smallcircle.
[3]; P96 Viral Syndrome
  aberrant enzyme activity, MONOS: .smallcircle.
[3]; P97 Pyelonephritis
  aberrant enzyme activity, MONOS: .smallcircle.
[3]; P99 Viral Syndrome
  aberrant enzyme activity, MONOS: .smallcircle.
[3]; P102 UTI
  aberrant enzyme activity, MONOS: .smallcircle.
